The target in the assay is 5'-nucleotidase (Homo sapiens, UniProt P21589). In words: Biochemical Assay: Assay Reaction ConditionsAssay Volume: 70 μlReaction Volume: 50 μlCD73: 0.3208 nMAMP: 15 μMAssay Buffer: 25 mM Tris-HCL, pH 7.4, 0.01% Brij-35, 0.01% BSA, 5 mM MgCl2Assay Procedure:Used 384 clear plate.Made dose titration of testing compounds in assay buffer, 10 points ½ log titrations in duplicates starting at 100 μM.Added 25 μl of CD73 to each well for a final concentration of 320 pM.Incubated at RT for 15 min.Added 25 μl of AMP to each well for a final concentration of 15 μM.Incubated at RT for 10 min.Added 10 μl of Malachite Green Reagent A, incubate at RT for 10 min.Added 10 of Malachite Green Reagent B, incubate at RT for 45 min.Read the Absorbance on Envision plate reader using excitation filter: Cy5 620 nM.The ability of the compounds disclosed herein to inhibit CD73 activity was quantified and the respective IC50 values were determined.
Sequence of 5'-nucleotidase (P21589 whole entry): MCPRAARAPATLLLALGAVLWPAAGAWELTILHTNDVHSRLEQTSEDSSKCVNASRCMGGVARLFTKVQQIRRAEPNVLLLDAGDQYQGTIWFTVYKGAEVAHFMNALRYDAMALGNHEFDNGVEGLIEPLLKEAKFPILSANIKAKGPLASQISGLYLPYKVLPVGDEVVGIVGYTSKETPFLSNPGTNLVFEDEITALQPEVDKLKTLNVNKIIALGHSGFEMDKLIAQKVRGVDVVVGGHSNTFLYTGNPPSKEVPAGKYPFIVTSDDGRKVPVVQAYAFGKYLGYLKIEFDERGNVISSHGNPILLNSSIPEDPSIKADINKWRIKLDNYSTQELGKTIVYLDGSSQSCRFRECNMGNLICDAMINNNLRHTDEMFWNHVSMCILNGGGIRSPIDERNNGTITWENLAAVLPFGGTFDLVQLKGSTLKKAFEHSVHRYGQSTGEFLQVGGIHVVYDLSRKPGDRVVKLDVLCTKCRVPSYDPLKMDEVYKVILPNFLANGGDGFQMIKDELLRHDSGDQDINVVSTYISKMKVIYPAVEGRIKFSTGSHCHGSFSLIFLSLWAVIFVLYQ

For orientation: IC50 means the concentration that gives 50% inhibition. A low value points to higher potency.

In turn, `O=P(O)(O)[C@H](CO)OC[C@H]1O[C@@H](n2ncc3c(NC4CCCC4)nc(Cl)nc32)[C@H](O)[C@@H]1O` (single isomer, unassigned) showed an IC50 below 100 nM.

The values are drawn from ChEMBL document CHEMBL5729105, “CD73 inhibitors” (2022).
